PubChem BioAssay AID1919009 (Molecular Pharmacology Branch, DTP, NCI, 2023)
Each block holds one compound with its values, some of them ahead of it.

Tested on: K24384-001-R-PDC complex spheroid growth
Experiment: Anticancer human tumor K24384-001-R-PDC patient-derived pancreatic adenocarcinoma cell line growth inhibition [AhR]
Settings: for IC50: curve of first compound; for viability, T/C: stronger effect = lower value
Outline: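 Complex tumor spheroids co-cultured with HUVEC and human MSC stroma; AhR antagonists tested in combination with standard-of-care and investigational agents. Top concentration at or near clinical Cmax (else 10 microM), half-log dilutions; growth expressed as percent test/control.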

[1] = second compound 0.1 µM, first compound 0.00949 µM
[2] = second compound 0.1 µM, first compound 0.03 µM
[3] = second compound 0.1 µM, first compound 0.0949 µM
[4] = second compound 0.1 µM, first compound 0.3 µM
[5] = second compound 0.316 µM, first compound 0.00949 µM
[6] = second compound 0.316 µM, first compound 0.03 µM
[7] = second compound 0.316 µM, first compound 0.0949 µM
[8] = second compound 0.316 µM, first compound 0.3 µM
[9] = second compound 1 µM, first compound 0.00949 µM
[10] = second compound 1 µM, first compound 0.03 µM
[11] = second compound 1 µM, first compound 0.0949 µM
[12] = second compound 1 µM, first compound 0.3 µM
[13] = second compound 3.16 µM, first compound 0.00949 µM
[14] = second compound 3.16 µM, first compound 0.03 µM
[15] = second compound 3.16 µM, first compound 0.0949 µM
[16] = second compound 3.16 µM, first compound 0.3 µM
[17] = second compound 10 µM, first compound 0.00949 µM
[18] = second compound 10 µM, first compound 0.03 µM
[19] = second compound 10 µM, first compound 0.0949 µM
[20] = second compound 10 µM, first compound 0.3 µM
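Wherever viability, T/C is given: percent of DMSO vehicle-treated spheroid viability set as 100%.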

IC50 (second compound 0.1 µM): > 10 µM | IC50 (second compound 0.316 µM): > 10 µM | IC50 (second compound 1 µM): 9.66 µM | IC50 (second compound 3.16 µM): 9.75 µM | IC50 (second compound 10 µM): > 10 µM
SMILES: CC1(C)CCC(CN2CCN(c3ccc(C(=O)NS(=O)(=O)c4ccc(NCC5CCOCC5)c([N+](=O)[O-])c4)c(Oc4cnc5[nH]ccc5c4)c3)CC2)=C(c2ccc(Cl)cc2)C1 + Cc1ccccc1N=Nc1ccc(NC(=O)c2ccnn2C)c(C)c1
viability, T/C (second compound 0.1 µM, first compound 0.0316 µM): 111% | viability, T/C (second compound 0.1 µM, first compound 0.1 µM): 119% | viability, T/C (second compound 0.1 µM, first compound 0.316 µM): 113% | viability, T/C (second compound 0.1 µM, first compound 1 µM): 102% | viability, T/C (second compound 0.1 µM, first compound 3.16 µM): 86.5% | viability, T/C (second compound 0.1 µM, first compound 10 µM): 52.3% | viability, T/C (second compound 0.316 µM, first compound 0.0316 µM): 123% | viability, T/C (second compound 0.316 µM, first compound 0.1 µM): 112% | viability, T/C (second compound 0.316 µM, first compound 0.316 µM): 132% | viability, T/C (second compound 0.316 µM, first compound 1 µM): 114% | viability, T/C (second compound 0.316 µM, first compound 3.16 µM): 118% | viability, T/C (second compound 0.316 µM, first compound 10 µM): 51.7% | viability, T/C (second compound 1 µM, first compound 0.0316 µM): 108% | viability, T/C (second compound 1 µM, first compound 0.1 µM): 102% | viability, T/C (second compound 1 µM, first compound 0.316 µM): 122% | viability, T/C (second compound 1 µM, first compound 1 µM): 112% | viability, T/C (second compound 1 µM, first compound 3.16 µM): 114% | viability, T/C (second compound 1 µM, first compound 10 µM): 48.1% | viability, T/C (second compound 3.16 µM, first compound 0.0316 µM): 111% | viability, T/C (second compound 3.16 µM, first compound 0.1 µM): 107% | viability, T/C (second compound 3.16 µM, first compound 0.316 µM): 114% | viability, T/C (second compound 3.16 µM, first compound 1 µM): 112% | viability, T/C (second compound 3.16 µM, first compound 3.16 µM): 112% | viability, T/C (second compound 3.16 µM, first compound 10 µM): 48.5% | viability, T/C (second compound 10 µM, first compound 0.0316 µM): 116% | viability, T/C (second compound 10 µM, first compound 0.1 µM): 147% | viability, T/C (second compound 10 µM, first compound 0.316 µM): 131% | viability, T/C (second compound 10 µM, first compound 1 µM): 129% | viability, T/C (second compound 10 µM, first compound 3.16 µM): 111% | viability, T/C (second compound 10 µM, first compound 10 µM): 57.8%

IC50 (second compound 0.1 µM): > 3 µM | IC50 (second compound 0.316 µM): > 3 µM | IC50 (second compound 1 µM): > 3 µM | IC50 (second compound 3.16 µM): > 3 µM | IC50 (second compound 10 µM): > 3 µM
SMILES: CCN(c1cc(-c2ccc(CN3CCOCC3)cc2)cc(C(=O)NCc2c(C)cc(C)[nH]c2=O)c1C)C1CCOCC1 + Cc1ccccc1N=Nc1ccc(NC(=O)c2ccnn2C)c(C)c1
viability, T/C [1]: 116% | viability, T/C [2]: 114% | viability, T/C [3]: 124% | viability, T/C [4]: 113% | viability, T/C (second compound 0.1 µM, first compound 0.949 µM): 80% | viability, T/C (second compound 0.1 µM, first compound 3 µM): 125% | viability, T/C [5]: 131% | viability, T/C [6]: 126% | viability, T/C [7]: 135% | viability, T/C [8]: 112% | viability, T/C (second compound 0.316 µM, first compound 0.949 µM): 106% | viability, T/C (second compound 0.316 µM, first compound 3 µM): 91.2% | viability, T/C [9]: 119% | viability, T/C [10]: 134% | viability, T/C [11]: 131% | viability, T/C [12]: 106% | viability, T/C (second compound 1 µM, first compound 0.949 µM): 87.3% | viability, T/C (second compound 1 µM, first compound 3 µM): 87.8% | viability, T/C [13]: 109% | viability, T/C [14]: 117% | viability, T/C [15]: 116% | viability, T/C [16]: 107% | viability, T/C (second compound 3.16 µM, first compound 0.949 µM): 130% | viability, T/C (second compound 3.16 µM, first compound 3 µM): 105% | viability, T/C [17]: 141% | viability, T/C [18]: 138% | viability, T/C [19]: 147% | viability, T/C [20]: 137% | viability, T/C (second compound 10 µM, first compound 0.949 µM): 128% | viability, T/C (second compound 10 µM, first compound 3 µM): 110%

IC50 (second compound 0.1 µM): > 0.3 µM | IC50 (second compound 0.316 µM): > 0.3 µM | IC50 (second compound 1 µM): > 0.3 µM | IC50 (second compound 3.16 µM): > 0.3 µM | IC50 (second compound 10 µM): > 0.3 µM
SMILES: Nc1ncn(C2CC(O)C(CO)S2)c(=O)n1 (stereo not given) + Cc1ccccc1N=Nc1ccc(NC(=O)c2ccnn2C)c(C)c1
viability, T/C (second compound 0.1 µM, first compound 0.000949 µM): 92.5% | viability, T/C (second compound 0.1 µM, first compound 0.003 µM): 103% | viability, T/C [1]: 105% | viability, T/C [2]: 79.3% | viability, T/C [3]: 66% | viability, T/C [4]: 57.8% | viability, T/C (second compound 0.316 µM, first compound 0.000949 µM): 111% | viability, T/C (second compound 0.316 µM, first compound 0.003 µM): 99.7% | viability, T/C [5]: 88.4% | viability, T/C [6]: 66.2% | viability, T/C [7]: 65.8% | viability, T/C [8]: 54.5% | viability, T/C (second compound 1 µM, first compound 0.000949 µM): 99.3% | viability, T/C (second compound 1 µM, first compound 0.003 µM): 82% | viability, T/C [9]: 68.7% | viability, T/C [10]: 78.9% | viability, T/C [11]: 61.5% | viability, T/C [12]: 58% | viability, T/C (second compound 3.16 µM, first compound 0.000949 µM): 86.6% | viability, T/C (second compound 3.16 µM, first compound 0.003 µM): 83.3% | viability, T/C [13]: 92.6% | viability, T/C [14]: 63.5% | viability, T/C [15]: 53.1% | viability, T/C [16]: 46.9% | viability, T/C (second compound 10 µM, first compound 0.000949 µM): 100% | viability, T/C (second compound 10 µM, first compound 0.003 µM): 103% | viability, T/C [17]: 87.4% | viability, T/C [18]: 82.8% | viability, T/C [19]: 72.4% | viability, T/C [20]: 60.7%
